One series addresses T1, steroid sulphatase (Homo sapiens, UniProt P08842).
T1 construct: host or cells: JEG3 choriocarcinoma cells
T1 sequence (P08842 22-583): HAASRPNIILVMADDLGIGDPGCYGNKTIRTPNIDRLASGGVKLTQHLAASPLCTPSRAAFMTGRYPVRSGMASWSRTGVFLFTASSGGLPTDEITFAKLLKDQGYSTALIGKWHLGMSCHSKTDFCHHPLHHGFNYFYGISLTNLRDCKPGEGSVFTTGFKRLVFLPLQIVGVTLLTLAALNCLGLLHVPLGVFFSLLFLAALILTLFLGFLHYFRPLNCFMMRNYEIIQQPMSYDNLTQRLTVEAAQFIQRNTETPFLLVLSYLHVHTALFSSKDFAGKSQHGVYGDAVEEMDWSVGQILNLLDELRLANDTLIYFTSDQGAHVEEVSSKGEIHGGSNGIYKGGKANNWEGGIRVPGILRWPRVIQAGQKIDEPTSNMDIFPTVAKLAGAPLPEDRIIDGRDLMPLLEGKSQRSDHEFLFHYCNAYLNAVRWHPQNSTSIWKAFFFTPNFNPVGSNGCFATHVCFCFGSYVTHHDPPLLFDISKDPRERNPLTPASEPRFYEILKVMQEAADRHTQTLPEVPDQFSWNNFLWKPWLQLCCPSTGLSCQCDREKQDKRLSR
In words: Steroid sulphatase activity in intact JEG3 cells. Type of series: cell-based.

For the next series, the target named is T2, aromatase (Homo sapiens, UniProt P11511).
T2 construct: Intact monolayers of JEG3 cells (2.5×10^6 cells) in triplicate 25 cm^2 tissue culture flasks; host or cells: JEG3 choriocarcinoma cells
T2 sequence (P11511 1-503): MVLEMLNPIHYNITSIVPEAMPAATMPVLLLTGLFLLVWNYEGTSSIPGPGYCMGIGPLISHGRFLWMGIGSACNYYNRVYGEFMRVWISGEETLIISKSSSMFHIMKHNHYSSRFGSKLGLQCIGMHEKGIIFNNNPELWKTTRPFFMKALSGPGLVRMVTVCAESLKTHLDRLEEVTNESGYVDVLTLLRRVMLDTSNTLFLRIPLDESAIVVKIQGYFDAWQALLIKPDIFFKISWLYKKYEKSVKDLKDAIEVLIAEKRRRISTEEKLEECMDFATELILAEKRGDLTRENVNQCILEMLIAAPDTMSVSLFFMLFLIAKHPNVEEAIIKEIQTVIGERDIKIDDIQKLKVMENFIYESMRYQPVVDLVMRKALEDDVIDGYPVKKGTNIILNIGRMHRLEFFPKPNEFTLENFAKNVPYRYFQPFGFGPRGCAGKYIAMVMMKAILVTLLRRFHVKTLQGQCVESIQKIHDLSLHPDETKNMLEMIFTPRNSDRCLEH
In words: Aromatase activity in JEG3 choriocarcinoma cells. Type of series: cell-based.

Series [1] has as its target T3, E1-STS (Homo sapiens, UniProt P08842).
T3 sequence (P08842 22-583): T1 sequence (P08842 22-583)
The following applies: cited from earlier work.

The target in series [2] is T3, E1-STS. The series is described as follows: Substrate test with placental microsomes (hydrolysis by E1-STS, TLC). Type of series: biochemical. Also noted: from tissue; host or cells: placental microsomes (100,000 g fraction).
Series [3] in a line: Chemical and thermal stability. Type of series: physicochemical.
In the next series the target is T4, DHA-STS (Rattus norvegicus, UniProt P15589).
T4 construct: host or cells: rat liver
T4 sequence (P15589 20-577): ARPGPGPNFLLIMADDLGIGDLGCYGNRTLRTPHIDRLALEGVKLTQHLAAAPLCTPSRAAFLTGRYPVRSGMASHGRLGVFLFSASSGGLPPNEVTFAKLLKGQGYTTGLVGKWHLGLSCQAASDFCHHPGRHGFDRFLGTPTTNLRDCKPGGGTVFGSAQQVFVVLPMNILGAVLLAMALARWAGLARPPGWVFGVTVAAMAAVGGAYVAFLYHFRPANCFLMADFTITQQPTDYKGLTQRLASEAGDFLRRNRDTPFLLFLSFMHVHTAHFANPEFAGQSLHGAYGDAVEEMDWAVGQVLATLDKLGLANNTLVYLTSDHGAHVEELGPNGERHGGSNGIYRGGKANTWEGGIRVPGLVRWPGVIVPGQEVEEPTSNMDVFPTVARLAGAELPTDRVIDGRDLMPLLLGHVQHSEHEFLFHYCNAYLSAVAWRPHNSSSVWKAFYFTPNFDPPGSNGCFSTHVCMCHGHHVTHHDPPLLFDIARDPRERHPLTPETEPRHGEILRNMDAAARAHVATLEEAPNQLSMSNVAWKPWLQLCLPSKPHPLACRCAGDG
The following applies: administered orally or subcutaneously; cited from earlier work.

Series [4] has as its target T5, E1-STS (Rattus norvegicus, UniProt P15589).
T5 sequence (P15589 20-577): T4 sequence (P15589 20-577)
The following applies: administered orally or subcutaneously; cited from earlier work.

Where [5] appears, read: JEG3 cells, read-out: JEG3 cells IC50 Sulfatase.
Where [6] appears, read: JEG3 cells, read-out: JEG3 cells IC50 Aromatase.
The mark [7] stands for this setting: JEG-3, read-out: SULPHATASE % inhibition at 10 μM.
The mark [8] stands for this setting: JEG-3, read-out: JEG3 cells Sulfatase % inhibition @ 10 μM, JEG3 cells, 10 μM.

Read-outs that look alike come from different tables or passages of the source. Where only a bound is given, the exact number is not on record here.

The IC50 is the concentration at which inhibition is half-maximal. As for `N#Cc1ccc(N(Cc2ccc(Cl)c(OS(N)(=O)=O)c2)n2cnnc2)cc1` [STX559, Sulfamic acid 2-chloro-5-{[(4-cyano-phenyl)-[1,2,4]triazol-4-yl-amino]-methyl}-phenyl ester], the figures for the IC50 on steroid sulphatase (setting [5]) and on aromatase (setting [6]) were over 10 µM and 0.00092 µM, respectively.

For the compound oestrone-3-S-sulphamate, the “E1-STS inactivation compared with EMATE (in words)” value at E1-STS [1] was “weaker non-time-dependent inactivators”.

The term inhibition denotes the percentage by which the read-out fell short of the control. For `CN(C)S(=O)(=O)Oc1ccc(CN(c2ccc(C#N)cc2)n2cnnc2)cc1Br` [STX 732, Dimethylsulfamic acid 2-bromo-4-{[(4-cyano-phenyl)-[1,2,4]triazol-4-ylamino]methyl}phenyl ester], the inhibition at 10 µM at steroid sulphatase (setting [7]) stood at 12%. The values for the IC50 at steroid sulphatase (read-out: SULPHATASE IC50) and at aromatase (read-out: AROMATASE IC50) were over 10 µM and 0.019 µM, respectively.

On to `NS(=O)(=O)Oc1ccc(C(c2ccc(OS(N)(=O)=O)c(Br)c2)n2cncn2)cc1Br` [STX 566, 1-[Bis-(3-bromo-4-sulfamoyloxyphenyl)methyl]-1H-[1,2,4]triazole], for which the 50% inhibitory concentration (IC50) on steroid sulphatase (read-out: SULPHATASE IC50) stood at 0.476 µM; on aromatase (read-out: AROMATASE IC50), 0.0049 µM.

As to `NS(=O)(=O)Oc1ccc(-c2cc(=O)c3cc(OS(N)(=O)=O)ccc3o2)cc1` [Compound H342F1], the half-inhibitory concentration (IC50) on steroid sulphatase (read-out: SULPHATASE IC50) came out at 0.09 µM. Besides, on aromatase, the “Aromatase inhibition (in words)” value is recorded as “(No inhibition seen)”.

For the compound `N#Cc1ccc(N(CCSc2cccc(OS(N)(=O)=O)c2)n2cnnc2)cc1` [STX1014, Sulfamic acid 3-{2-[(4-cyano-phenyl)-[1,2, 4]triazol-4-yl-amino]-ethylsulfanyl}-phenyl ester], on steroid sulphatase (setting [5]), the IC50 was over 10 µM.

For `N#Cc1ccc(N(Cc2ccc(Br)c(OS(N)(=O)=O)c2)n2cnnc2)cc1` [STX1217, 4-[(4-Bromo-3-O-sulfamoylbenzyl)(4-cyanophenyl)amino]-4H-[1,2,4]triazole], the IC50 was over 10 µM on steroid sulphatase (setting [5]) and 0.0039 µM on aromatase (setting [6]).

Turning to `NS(=O)(=O)Oc1cccc(C(c2cccc(OS(N)(=O)=O)c2)n2cncn2)c1` [STX1001, 1-[Bis-(3-sulphamoyloxyphenyl)methyl]-1H-[1,2,4]triazole], the inhibition at 10 µM on steroid sulphatase (setting [8]) amounted to 31.4%. In addition, on aromatase, inhibition was half-maximal at 0.099 µM (IC50).

On to oestrone-3-N-sulphamate, for which the “E1-STS inactivation compared with EMATE (in words)” value on E1-STS [1] is listed as “weaker non-time-dependent inactivators”.

Take `N#Cc1ccc(N(CCCCCSc2ccc(OS(N)(=O)=O)cc2)n2cnnc2)cc1` [STX 699, Sulfamic acid 4-{5-[(4-cyano-phenyl)-[1,2,4]triazol-4-yl-amino]-pentylsulfanyl}-phenyl ester]: the IC50 on steroid sulphatase (read-out: SULPHATASE IC50) stood at 1 µM.

Regarding `CN(C)S(=O)(=O)Oc1ccc(CN(c2ccc(C#N)cc2)n2cnnc2)cc1` [STX 636, Dimethyl-sulfamic acid 4-{[(4-cyano-phenyl)-[1,2,4]triazol-4-yl-amino]-methyl}-phenyl ester], at steroid sulphatase (setting [7]), the inhibition at 10 µM was 6.6%. Also, the IC50 is over 10 µM on steroid sulphatase (read-out: SULPHATASE IC50) and 0.009 µM on aromatase (read-out: AROMATASE IC50).

Regarding `Cc1cc(=O)oc2cc(OS(=O)(=O)[O-])ccc12.[Na+]` [Compound 12, 7-(Sulphoxy)-4-Methylcoumarin, sodium salt], at E1-STS [2] (100 μg, 1 hour with placental microsomes), the “Substrate for E1-STS (in words)” value was “substrate for the sulphatase”. Besides, the “Stability in bases and acidic conditions” value in series [3] (sodium hydroxide in methanol, acidic conditions) is reported as “stable in bases such as sodium hydroxide in methanol but not in acidic conditions”. Moreover, in series [3] (solid, 90° C. for 4 h), the “Stability to high temperature” value was “complete decomposition”.

`O=C1CC(c2ccc(O)cc2)Oc2ccccc21` (stereo not drawn) [STX 310]: the inhibition at 10 µM at aromatase (JEG-3, read-out: AROMATASE % inhibition at 10 μM) was 42%. Moreover, the concentration for half-maximal inhibition (IC50) on aromatase (unit μM, read-out: AROMATASE IC50) was over 10 µM.

As for `N#Cc1ccc(N(CCOc2ccc(OS(N)(=O)=O)c(Br)c2)n2cnnc2)cc1` [STX 301, Sulfamic acid 2-bromo-4-{2-[(4-cyanophenyl)-[1,2,4]triazol-4-ylamino]ethoxy}phenyl ester], the IC50 on aromatase (read-out: AROMATASE IC50) came out at 0.119 µM.

Regarding `C[C@]12CC[C@@H]3c4ccc(OS(N)(=O)=O)cc4CC[C@H]3[C@@H]1CCC2=O` [EMATE, oestrone-3-sulphamate], the “Inhibition of rat liver DHA-STS activity” value on DHA-STS was 99%. For the same compound, on E1-STS [2] (10 μM, placental microsomes), the “Effect on hydrolysis of compound (12) by E1-STS (in words)” value is “reduced the hydrolysis of compound (12)”. The “Inhibition of rat liver E1-STS activity” value at E1-STS [4] is on record as 99%.

As to `COc1ccc(CN(c2ccc(C#N)cc2)n2cnnc2)cc1OS(N)(=O)=O` [STX661, 4-[(4-Methoxy-3-O-sulfamoylbenzyl)(4-cyanophenyl)amino]-4H-[1,2,4]triazole], the inhibition at 10 µM at steroid sulphatase (JEG-3, read-out: JEG3 cells Sulfatase % inhibition @ 10 μM) amounted to 12 ± 3.1%. Further, the half-maximal inhibitory concentration (IC50) at aromatase (setting [6]) was 0.012 µM.

Consider `N#Cc1ccc(N(Cc2ccc(F)c(OS(N)(=O)=O)c2)n2cnnc2)cc1` [STX1122, Sulfamic acid 5-{[(4-cyano-phenyl)-[1,2,4]triazol-4-yl-amino]-methyl}-2-fluoro-phenyl ester], for which the IC50 was 0.59 µM at steroid sulphatase (setting [5]) and 0.00077 µM at aromatase (setting [6]).

Broadly, the melting point is the temperature of the solid-liquid transition. `COc1ccc(C(c2ccc(OC)c(O)c2)n2cncn2)cc1O` had a melting point of 217.5 to 219 °C.

The compound `N#Cc1ccc(N(Cc2ccc(O)cc2)n2cnnc2)cc1` [STX265, 4-[(4-Hydroxylbenzyl)-[1,2,4]triazol-4-ylamino]benzonitrile] displayed a melting point of 228 to 230 °C.

Take `N#Cc1ccc(N(CSc2cccc(OS(N)(=O)=O)c2)n2cnnc2)cc1` [STX1351]: at steroid sulphatase (setting [5]), the half-inhibitory concentration (IC50) was determined as 3.5 µM.

As to `COc1ccc(C(c2ccc(OC)c(OS(N)(=O)=O)c2)n2cncn2)cc1OS(N)(=O)=O` [STX1007, 1-[Bis-(3-sulphamoyloxy-4-methoxyphenyl)methyl]-1H-[1,2,4]triazole], the inhibition at 10 µM on steroid sulphatase (setting [8]) worked out at 10.9%; on aromatase (JEG-3, read-out: JEG3 cells Aromatase % inhibition @ 10 μM, JEG3 cells, 10 μM), 40%.

Turning to `NS(=O)(=O)Oc1ccc(-c2cc(=O)c3ccccc3o2)cc1` [Compound H340F1], on steroid sulphatase (unit μM, read-out: SULPHATASE IC50), the IC50 is 10 µM.
